The values that follow are results of earlier work, collected in paper PMC4278936 (Journal of computer-aided molecular design, 2014).

Molecules are shown by their SMILES.

The target of this series is T1, PfENR (Plasmodium falciparum, UniProt Q9BH77).
T1 sequence (Q9BH77 22-432): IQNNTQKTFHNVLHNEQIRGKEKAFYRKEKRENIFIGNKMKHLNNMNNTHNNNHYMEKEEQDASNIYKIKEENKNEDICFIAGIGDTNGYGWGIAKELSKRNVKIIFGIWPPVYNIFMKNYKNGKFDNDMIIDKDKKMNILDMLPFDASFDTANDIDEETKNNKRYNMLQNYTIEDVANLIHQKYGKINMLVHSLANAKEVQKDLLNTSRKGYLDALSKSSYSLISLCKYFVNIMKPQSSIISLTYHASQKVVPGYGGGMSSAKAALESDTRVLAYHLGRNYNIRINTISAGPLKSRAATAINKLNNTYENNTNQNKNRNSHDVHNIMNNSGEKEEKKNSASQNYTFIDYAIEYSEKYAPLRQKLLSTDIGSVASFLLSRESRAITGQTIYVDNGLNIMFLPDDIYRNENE
The note with it: ref [32], [60].

On to `Oc1cc(Cl)ccc1Oc1ccc(Cl)cc1Cl` [compound 1, Triclosan], for which the “Concentration range in which TCL inhibits PfENR” value is reported as “picomolar to nanomolar range”.
